ChEMBL document CHEMBL1201862, “PubChem BioAssay data set” (2004)
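How tested: cells in 96-well plates exposed to compound for 48 hours at five concentrations. GI50 is the concentration that inhibits growth by half.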 Active and inactive are the calls of the source. No stated cut-off is given here; in the data, active = GI50 up to about 1.1 µM and inactive = higher.

Legend:
Experiment in all cases: DTP human tumour cell line panel, 48 h
[1] = test system: DU-145
[2] = test system: 786-0
[3] = test system: COLO 205
[4] = test system: MDA-MB-231
[5] = test system: SK-MEL-5
[6] = test system: EKVX
[7] = test system: MDA-MB-435
[8] = test system: NCI-H460
[9] = test system: HCC 2998
[10] = test system: SF-295
[11] = test system: SNB-75
[12] = test system: HCT-116
[13] = test system: U-251
[14] = test system: TK-10
[15] = test system: SK-MEL-2
[16] = test system: Hs-578T
[17] = test system: SK-OV-3
[18] = test system: RPMI-8226
[19] = test system: HOP-92
[20] = test system: IGROV-1

Compound	GI50 [1]	GI50 [2]	GI50 [3]	GI50 [4]	GI50 [5]	GI50 [6]	GI50 [7]	GI50 [8]	GI50 [9]	GI50 [10]	GI50 [11]	GI50 [12]	GI50 [13]	GI50 [14]	GI50 [15]	GI50 [16]	GI50 [17]	GI50 [18]	GI50 [19]	GI50 [20]
Cn1c(N)nc(-c2ccc(Cl)cc2)c1SSc1c(-c2ccc(Cl)cc2)nc(N)n1C	12.8 µM (inactive)	1.92 µM (inactive)	1.94 µM (inactive)	1.4 µM (inactive)	1.82 µM (inactive)	2.73 µM (inactive)	2.05 µM (inactive)	3.45 µM (inactive)	7.82 µM (inactive)	6.93 µM (inactive)	7.67 µM (inactive)	4.23 µM (inactive)	2.03 µM (inactive)	1.86 µM (inactive)	17.8 µM (inactive)	27.1 µM (inactive)	14.4 µM (inactive)	1.31 µM (inactive)	1.97 µM (inactive)	2.99 µM (inactive)
CC(=O)Oc1cccc2c1C(=O)C(Br)(Br)CCC2	13.7 µM (inactive)	5.32 µM (inactive)	6.52 µM (inactive)	2.38 µM (inactive)	4.41 µM (inactive)	11 µM (inactive)	3.56 µM (inactive)	17.3 µM (inactive)	15.3 µM (inactive)	17.5 µM (inactive)	6.1 µM (inactive)	3.26 µM (inactive)	9.62 µM (inactive)	16.9 µM (inactive)	9.23 µM (inactive)	7.38 µM (inactive)	10.1 µM (inactive)	2.22 µM (inactive)	2.93 µM (inactive)	13.5 µM (inactive)
COC(=O)/C(C#N)=C(\Nc1ccccc1)N1CCCC1	> 100 µM (inactive)	> 100 µM (inactive)	> 100 µM (inactive)	> 100 µM (inactive)	> 100 µM (inactive)	> 100 µM (inactive)	> 100 µM (inactive)	> 100 µM (inactive)	> 100 µM (inactive)	> 100 µM (inactive)	> 100 µM (inactive)	> 100 µM (inactive)	> 100 µM (inactive)	> 100 µM (inactive)	> 100 µM (inactive)	> 100 µM (inactive)	> 100 µM (inactive)	> 100 µM (inactive)	> 100 µM (inactive)	> 100 µM (inactive)
O=C1C(Cl)C(c2cc3cc(Br)ccc3nc2Cl)N1c1ccc(F)c(Cl)c1 (stereo not given)	8.02 µM (inactive)	1.09 µM (active)	6.62 µM (inactive)	8.09 µM (inactive)	9.02 µM (inactive)	1.42 µM (inactive)	5.64 µM (inactive)	11.7 µM (inactive)	11.7 µM (inactive)	7.14 µM (inactive)	8.61 µM (inactive)	7.94 µM (inactive)	2.77 µM (inactive)	6.32 µM (inactive)	8.83 µM (inactive)	20.1 µM (inactive)	6.75 µM (inactive)	1.36 µM (inactive)	1.31 µM (inactive)	0.957 µM (active)
CC(C)(O)C1OCC(C2CCC3(C)C4=CCC5C(C)(C)C(O)CCC5(C)C4CCC23C)CC1O (stereo not given)	17.3 µM (inactive)	14.2 µM (inactive)	15 µM (inactive)	15.3 µM (inactive)	14.7 µM (inactive)	17.2 µM (inactive)	15.5 µM (inactive)	13.4 µM (inactive)	16.6 µM (inactive)	13.9 µM (inactive)	16.9 µM (inactive)	14.5 µM (inactive)	14.4 µM (inactive)	13.2 µM (inactive)	22.8 µM (inactive)	13.8 µM (inactive)	15.8 µM (inactive)	7.94 µM (inactive)	12.6 µM (inactive)	17.3 µM (inactive)
N=C(N)NS(=O)(=O)c1ccc(Nc2c3ccccc3nc3ccc(C(=O)Nc4ccc(S(N)(=O)=O)cc4)cc23)cc1	> 100 µM (inactive)	> 100 µM (inactive)	> 100 µM (inactive)	> 100 µM (inactive)	> 100 µM (inactive)	> 100 µM (inactive)	> 100 µM (inactive)	> 100 µM (inactive)	> 100 µM (inactive)	> 100 µM (inactive)	> 100 µM (inactive)	> 100 µM (inactive)	> 100 µM (inactive)	> 100 µM (inactive)	> 100 µM (inactive)	> 100 µM (inactive)	> 100 µM (inactive)	> 100 µM (inactive)	> 100 µM (inactive)	> 100 µM (inactive)
